In patent publication US10227342B2 (ARIAD PHARMACEUTICALS, INC., priority 2014, dated 2019):

How the values were obtained:
Type in all cases: cell-based
[1] = target: human EGFR exon 20 insertion ASV (V769_D770insASV) (Homo sapiens (Human), UniProt P00533, INS769ASV); test: Ba/F3-EGFR-Exon20-ASV cell anti-proliferative assay (CellTiter 96 MTS, 72 h); details: Ba/F3-EGFR-Exon20-ASV cells;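 note: Ba/F3 cells bearing the EGFR exon 20 ASV insertion, a line able to proliferate without IL-3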
[2] = target: human EGFR exon 20 insertion NPG (H773_V774insNPG) (Homo sapiens, UniProt P00533, INS773NPG, cells depend on it); test: Ba/F3-EGFR-Exon20-NPG cell anti-proliferative assay (CellTiter 96 MTS, 72 h); details: read-out: EGFR exon 20 NPG insertion IC50
[3] = target: human EGFR E746-A750 deletion and T790M Mutation (DT) (Homo sapiens (Human), UniProt P00533, DEL746-750/T790M); test: Ba/F3-EGFR-Del/T790M cell anti-proliferative assay (CellTiter 96 MTS, 72 h); details: Ba/F3-EGFR-Del/T790M cells; for IC50: read-out: EGFR exon 19 deletion and T790M mutation IC50
Experimental: An expression vector, pLVX-IRES puro (Clontech) coding for human EGFR E746-A750 deletion and T790M Mutation, was transfected into HEK293 cells by the Trans-Lentiviral ORF Packaging System (Thermo Scientific), to produce virus encoding EGFR exon 19 deletion and T790M mutations. […] Ba/F3 cells expressing EGFR E746-A750 deletion and T790M Mutation (named Ba/F3-EGFR-Del/T790M) can proliferate in the absence of IL-3. The anti-proliferative activity of compounds was determined as follows: BaF3-EGFR-Del/T790M cells seeded in 96 well plates (2500 cells/well) were treated with test compound (dissolved in DMSO) at a series of concentrations (4-fold dilution, top concentration: 10,000 nM). The plates were incubated for 72 h in a 37° C. incubator with 5% CO2, and the number of viable cells in each well were measured indirectly by CellTiter 96® Aqueous One Solution Cell Proliferation Assay (Promega; this assay is a colorimetric method for determining the number of viable cells through measurement of their metabolic activity by detection of enzymatic conversion of tetrazolium salts into blue formazan derivatives). Reagent (20 μL) was added into each well, and the plates were returned to the incubator for 2 h. The absorbance in each well was then measured at 490 nm using an Envision plate reader (Perkin Elmer).

[4] = target: Her2 exon 20 YVMA insertion (A775_G776ins YVMA) (Homo sapiens (Human), UniProt P04626, INS775YVMA); test: Ba/F3-Her2 Exon20 YVMA cell anti-proliferative assay (CellTiter 96 MTS, 72 h); details: Ba/F3-Her2 Exon20 YVMA cells
From the text: Ba/F3 cells expressing Her2 Exon20 YVMA insertions (named Ba/F3-Her2 Exon20 YVMA) can proliferate in the absence of IL-3.

Sequence of Her2 exon 20 YVMA insertion (A775_G776ins YVMA) (P04626 other isoform, or with tags, fused parts or gaps ins YVMA behind 775): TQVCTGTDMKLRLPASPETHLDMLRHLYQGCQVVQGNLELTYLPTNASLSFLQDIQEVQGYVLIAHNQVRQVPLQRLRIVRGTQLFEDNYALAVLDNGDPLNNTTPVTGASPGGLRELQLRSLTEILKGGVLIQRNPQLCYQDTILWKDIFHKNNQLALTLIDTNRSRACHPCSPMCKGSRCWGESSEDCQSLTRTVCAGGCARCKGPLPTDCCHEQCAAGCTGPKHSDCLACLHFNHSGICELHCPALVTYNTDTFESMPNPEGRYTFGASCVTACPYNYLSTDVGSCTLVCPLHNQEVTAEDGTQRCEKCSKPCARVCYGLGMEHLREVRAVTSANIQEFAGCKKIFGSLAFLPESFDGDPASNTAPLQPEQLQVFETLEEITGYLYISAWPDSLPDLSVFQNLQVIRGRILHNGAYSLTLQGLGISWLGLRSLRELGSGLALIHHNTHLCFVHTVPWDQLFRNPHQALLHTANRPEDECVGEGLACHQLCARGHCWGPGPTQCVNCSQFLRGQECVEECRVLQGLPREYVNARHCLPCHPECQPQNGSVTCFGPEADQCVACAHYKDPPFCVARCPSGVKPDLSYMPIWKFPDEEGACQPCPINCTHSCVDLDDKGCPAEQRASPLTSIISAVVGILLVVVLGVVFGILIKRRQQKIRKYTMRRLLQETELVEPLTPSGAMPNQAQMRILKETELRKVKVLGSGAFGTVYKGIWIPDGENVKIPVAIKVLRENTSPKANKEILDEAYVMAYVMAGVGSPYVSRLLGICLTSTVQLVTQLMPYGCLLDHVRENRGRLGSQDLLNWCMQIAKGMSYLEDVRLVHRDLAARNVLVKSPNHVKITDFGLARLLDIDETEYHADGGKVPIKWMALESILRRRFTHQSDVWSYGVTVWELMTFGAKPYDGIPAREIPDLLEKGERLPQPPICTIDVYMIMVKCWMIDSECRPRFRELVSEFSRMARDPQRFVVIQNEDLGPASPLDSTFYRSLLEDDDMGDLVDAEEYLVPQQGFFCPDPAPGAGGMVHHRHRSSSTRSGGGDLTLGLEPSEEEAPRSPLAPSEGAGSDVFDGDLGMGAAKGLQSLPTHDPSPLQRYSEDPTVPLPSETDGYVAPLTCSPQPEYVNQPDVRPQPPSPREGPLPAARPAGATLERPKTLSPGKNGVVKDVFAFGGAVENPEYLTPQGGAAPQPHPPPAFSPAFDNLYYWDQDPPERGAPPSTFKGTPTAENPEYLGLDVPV
Sequence of human EGFR exon 20 insertion ASV (V769_D770insASV) (P00533 other isoform, or with tags, fused parts or gaps ins ASV behind 769): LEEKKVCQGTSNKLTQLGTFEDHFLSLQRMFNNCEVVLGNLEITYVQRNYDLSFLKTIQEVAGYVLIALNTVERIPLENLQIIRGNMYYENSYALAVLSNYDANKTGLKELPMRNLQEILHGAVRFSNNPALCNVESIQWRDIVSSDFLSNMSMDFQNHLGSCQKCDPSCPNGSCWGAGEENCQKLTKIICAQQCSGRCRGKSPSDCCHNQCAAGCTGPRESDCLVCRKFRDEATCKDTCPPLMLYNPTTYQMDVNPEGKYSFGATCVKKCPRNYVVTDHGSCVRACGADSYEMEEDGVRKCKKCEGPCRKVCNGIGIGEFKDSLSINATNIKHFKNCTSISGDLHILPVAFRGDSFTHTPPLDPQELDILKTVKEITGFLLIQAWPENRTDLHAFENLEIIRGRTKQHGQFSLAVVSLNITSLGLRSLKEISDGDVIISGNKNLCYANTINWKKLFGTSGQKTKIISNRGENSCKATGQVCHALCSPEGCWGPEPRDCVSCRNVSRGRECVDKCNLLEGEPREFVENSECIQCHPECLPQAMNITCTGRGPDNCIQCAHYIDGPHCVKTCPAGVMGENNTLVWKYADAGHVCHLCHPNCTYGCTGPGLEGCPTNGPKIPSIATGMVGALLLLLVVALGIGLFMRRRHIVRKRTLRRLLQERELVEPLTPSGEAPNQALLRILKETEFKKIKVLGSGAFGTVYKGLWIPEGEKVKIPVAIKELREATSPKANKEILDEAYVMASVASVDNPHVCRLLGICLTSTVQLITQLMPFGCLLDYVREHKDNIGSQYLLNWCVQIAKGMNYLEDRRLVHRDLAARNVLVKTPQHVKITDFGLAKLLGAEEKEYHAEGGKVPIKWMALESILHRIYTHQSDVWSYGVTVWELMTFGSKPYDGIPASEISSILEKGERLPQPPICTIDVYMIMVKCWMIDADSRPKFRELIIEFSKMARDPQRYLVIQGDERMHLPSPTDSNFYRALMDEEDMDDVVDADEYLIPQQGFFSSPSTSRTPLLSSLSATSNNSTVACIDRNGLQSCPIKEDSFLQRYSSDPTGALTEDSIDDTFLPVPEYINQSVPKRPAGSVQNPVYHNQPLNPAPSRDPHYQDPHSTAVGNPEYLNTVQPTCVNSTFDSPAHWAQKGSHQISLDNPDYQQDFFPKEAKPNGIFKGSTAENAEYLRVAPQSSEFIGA
Sequence of human EGFR E746-A750 deletion and T790M Mutation (DT) (P00533 other isoform, or with tags, fused parts or gaps T790M/del E746-A750): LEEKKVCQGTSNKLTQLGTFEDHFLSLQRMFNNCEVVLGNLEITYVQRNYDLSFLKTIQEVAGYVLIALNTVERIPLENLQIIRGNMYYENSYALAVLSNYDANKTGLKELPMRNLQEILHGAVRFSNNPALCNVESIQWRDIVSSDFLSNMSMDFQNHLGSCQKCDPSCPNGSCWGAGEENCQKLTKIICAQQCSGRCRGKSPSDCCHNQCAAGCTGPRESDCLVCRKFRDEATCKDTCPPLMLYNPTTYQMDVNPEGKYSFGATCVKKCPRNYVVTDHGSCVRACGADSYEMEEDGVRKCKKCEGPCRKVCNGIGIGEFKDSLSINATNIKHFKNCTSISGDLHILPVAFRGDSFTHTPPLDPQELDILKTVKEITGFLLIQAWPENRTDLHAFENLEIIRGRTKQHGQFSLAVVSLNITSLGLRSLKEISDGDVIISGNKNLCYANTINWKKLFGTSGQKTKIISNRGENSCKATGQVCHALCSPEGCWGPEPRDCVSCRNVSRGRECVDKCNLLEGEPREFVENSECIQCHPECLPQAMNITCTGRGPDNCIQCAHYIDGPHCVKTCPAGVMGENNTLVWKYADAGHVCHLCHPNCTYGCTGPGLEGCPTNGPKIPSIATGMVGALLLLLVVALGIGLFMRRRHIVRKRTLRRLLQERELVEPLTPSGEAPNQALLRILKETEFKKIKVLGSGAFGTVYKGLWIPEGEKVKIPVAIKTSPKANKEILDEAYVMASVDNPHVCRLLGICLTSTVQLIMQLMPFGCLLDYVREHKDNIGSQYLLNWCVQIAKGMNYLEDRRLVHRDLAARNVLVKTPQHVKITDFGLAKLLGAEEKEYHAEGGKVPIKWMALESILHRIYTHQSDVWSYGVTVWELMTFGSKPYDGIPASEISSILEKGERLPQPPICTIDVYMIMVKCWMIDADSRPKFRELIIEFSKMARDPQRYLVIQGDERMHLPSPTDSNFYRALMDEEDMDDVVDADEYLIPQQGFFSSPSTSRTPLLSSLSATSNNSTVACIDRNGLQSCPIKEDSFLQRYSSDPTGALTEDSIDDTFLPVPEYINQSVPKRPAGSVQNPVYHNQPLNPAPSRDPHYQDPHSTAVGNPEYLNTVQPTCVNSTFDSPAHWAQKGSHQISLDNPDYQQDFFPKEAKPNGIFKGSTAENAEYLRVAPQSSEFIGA
Sequence of human EGFR exon 20 insertion NPG (H773_V774insNPG) (P00533 with tags, fused parts or gaps INS773NPG limits assumed): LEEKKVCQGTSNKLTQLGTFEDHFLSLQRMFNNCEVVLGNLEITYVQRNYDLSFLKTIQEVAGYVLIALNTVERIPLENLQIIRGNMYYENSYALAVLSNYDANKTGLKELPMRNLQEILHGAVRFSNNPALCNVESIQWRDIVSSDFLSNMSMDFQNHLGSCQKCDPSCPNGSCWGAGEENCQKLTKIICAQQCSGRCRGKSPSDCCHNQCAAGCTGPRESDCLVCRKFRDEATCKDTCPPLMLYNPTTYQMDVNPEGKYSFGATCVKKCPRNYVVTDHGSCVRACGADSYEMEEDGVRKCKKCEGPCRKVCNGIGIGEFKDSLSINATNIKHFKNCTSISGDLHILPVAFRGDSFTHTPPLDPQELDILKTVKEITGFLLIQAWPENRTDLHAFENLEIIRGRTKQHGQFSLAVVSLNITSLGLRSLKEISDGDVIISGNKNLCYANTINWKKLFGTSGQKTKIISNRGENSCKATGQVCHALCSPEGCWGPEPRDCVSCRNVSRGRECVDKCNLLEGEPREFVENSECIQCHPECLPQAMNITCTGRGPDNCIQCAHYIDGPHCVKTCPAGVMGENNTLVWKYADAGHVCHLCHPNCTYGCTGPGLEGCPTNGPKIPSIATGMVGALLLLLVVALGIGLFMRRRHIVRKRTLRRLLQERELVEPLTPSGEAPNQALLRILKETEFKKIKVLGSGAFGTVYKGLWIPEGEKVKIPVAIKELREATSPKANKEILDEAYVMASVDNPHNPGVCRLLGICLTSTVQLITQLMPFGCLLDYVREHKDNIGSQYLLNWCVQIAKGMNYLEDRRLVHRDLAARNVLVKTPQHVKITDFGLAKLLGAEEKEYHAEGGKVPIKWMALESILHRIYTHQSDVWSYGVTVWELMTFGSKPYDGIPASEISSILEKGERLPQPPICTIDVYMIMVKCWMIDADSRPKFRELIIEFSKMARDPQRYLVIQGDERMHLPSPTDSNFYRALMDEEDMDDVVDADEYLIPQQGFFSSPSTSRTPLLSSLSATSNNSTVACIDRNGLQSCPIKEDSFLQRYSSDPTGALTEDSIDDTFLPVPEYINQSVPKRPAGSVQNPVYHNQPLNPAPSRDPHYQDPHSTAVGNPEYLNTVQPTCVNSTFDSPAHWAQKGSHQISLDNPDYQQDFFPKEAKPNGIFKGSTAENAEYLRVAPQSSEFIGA

Row | Structure (SMILES) | IC50 [1] | IC50 [2] | IC50 [3] | IC50 [4] | EGFR exon 19 deletion and T790M mutation IC50 [3]
1 | C=CC(=O)Nc1cc(Nc2ncc(C(=O)OC)c(-c3cn(C)c4ccccc34)n2)c(OC)cc1C#CCN(C)C [Example 68, methyl 2-((5-acrylamido-4-(3-(dimethylamino)prop-1-yn-1-yl)-2-methoxyphenyl)amino)-4-(1-methyl-1H-indol-3-yl)pyrimidine-5-carboxylate] | 100 to 500 nM | < 100 nM | < 100 nM | 500 to 1000 nM | 
2 | C=CC(=O)Nc1cc(Nc2ncc(C(=O)OC(C)C)c(-n3ccc4ccccc43)n2)c(OC)cc1N(C)CCN(C)C [Example 15, isopropyl 2-((5-acrylamido-4-((2-(dimethylamino)ethyl)(methyl)amino)-2-methoxyphenyl)amino)-4-(1H-indol-1-yl)pyrimidine-5-carboxylate] | < 100 nM | < 100 nM | < 100 nM | < 100 nM | 
3 | C=CC(=O)Nc1cc(Nc2ncc(C(=O)OC)c(-c3cn(C)c4ccccc34)n2)c(OC)cc1N(C)CC1CCCN1C (stereo not drawn) [Example 16, methyl 2-((5-acrylamido-2-methoxy-4-(methyl((1-methylpyrrolidin-2-yl)methyl)amino)phenyl)amino)-4-(1-methyl-1H-indol-3-yl)pyrimidine-5-carboxylate] | < 100 nM | < 100 nM | < 100 nM | 100 to 500 nM | 
4 | C=CC(=O)Nc1cc(Nc2ncc(C(=O)OC(C)C)c(-c3c[nH]c4ccccc34)n2)c(OC)cc1N(C)C[C@H]1CCCN1C [Example 64, isopropyl (R)-2-((5-acrylamido-2-methoxy-4-(methyl((1-methylpyrrolidin-2-yl)methyl)amino)phenyl)amino)-4-(1H-indol-3-yl)pyrimidine-5-carboxylate] | < 100 nM | < 100 nM | < 100 nM | < 100 nM | 
5 | C=CC(=O)Nc1ccc(OC)c(Nc2ncc(Cl)c(-c3c[nH]c4cc(OCCN5CCCC5)ccc34)n2)c1 [Example 22, N-(3-((5-chloro-4-(6-(2-(pyrrolidin-1-yl)ethoxy)-1H-indol-3-yl)pyrimidin-2-yl)amino)-4-methoxyphenyl)acrylamide] | 100 to 500 nM | < 100 nM | < 100 nM | 100 to 500 nM | 
6 | C=CC(=O)Nc1cc(Nc2nccc(-c3c(-c4cncc(Cl)c4)n(C)c4ccccc34)n2)c(OC)cc1N(C)CCN(C)C [Example 6, N-(5-((4-(2-(5-chloropyridin-3-yl)-1-methyl-1H-indol-3-yl)pyrimidin-2-yl)amino)-2-((2-(dimethylamino)ethyl)(methyl)amino)-4-methoxyphenyl)acrylamide] | < 100 nM | < 100 nM | < 100 nM | 100 to 500 nM | 
7 | C=CC(=O)Nc1ccc(OC)c(Nc2ncc(C#N)c(-c3cn(C)c4cc(OCCN5CCCC5)ccc34)n2)c1 [Example 20, N-(3-((5-cyano-4-(1-methyl-6-(2-(pyrrolidin-1-yl)ethoxy)-1H-indol-3-yl)pyrimidin-2-yl)amino)-4-methoxyphenyl)acrylamide] | 100 to 500 nM | < 100 nM | < 100 nM | 500 to 1000 nM | 
8 | C=CC(=O)Nc1cc(Nc2ncc(C(=O)OC)c(-c3cn(N(C)C)c4ccccc34)n2)c(OC)cc1N(C)CCN(C)C [Example 76, methyl 2-((5-acrylamido-4-((2-(dimethylamino)ethyl)(methyl)amino)-2-methoxyphenyl)amino)-4-(1-(dimethylamino)-1H-indol-3-yl)pyrimidine-5-carboxylate] | < 100 nM | < 100 nM | < 100 nM | < 100 nM | 
9 | C=CC(=O)Nc1cc(Nc2ncc(C(=O)OC(C)C)c(-c3cnn4ccccc34)n2)c(OC)cc1N(C)CCN(C)C [Example 32, isopropyl 2-((5-acrylamido-4-((2-(dimethylamino)ethyl)(methyl)amino)-2-methoxyphenyl)amino)-4-(pyrazolo[1,5-a]pyridin-3-yl)pyrimidine-5-carboxylate] | < 100 nM | < 100 nM | < 100 nM | < 100 nM | 
10 | C=CC(=O)Nc1cc(Nc2ncc(C(=O)OCC(C)C)c(-c3cn(C)c4ccccc34)n2)c(OC)cc1N(C)CCN(C)C [Example 28, isobutyl 2-((5-acrylamido-4-((2-(dimethylamino)ethyl)(methyl)amino)-2-methoxyphenyl)amino)-4-(1-methyl-1H-indol-3-yl)pyrimidine-5-carboxylate] | < 100 nM | < 100 nM | < 100 nM | 100 to 500 nM | 
11 | C=CC(=O)Nc1cc(Nc2ncnc(-c3c(C4CCOCC4)n(C)c4ccccc34)n2)c(OC)cc1N(C)CCN(C)C [Example 4, N-(2-((2-(dimethylamino)ethyl)(methyl)amino)-4-methoxy-5-((4-(1-methyl-2-(tetrahydro-2H-pyran-4-yl)-1H-indol-3-yl)-1,3,5-triazin-2-yl)amino)phenyl)acrylamide] | 100 to 500 nM | < 100 nM |  | 100 to 500 nM | B (Group B compounds have an IC50 value for the indicated mutant between about 100 to about 500 nM)
12 | C=CC(=O)Nc1cc(Nc2ncc(C(=O)OC(C)C)c(-c3cnc4ccccn34)n2)c(OC)cc1N(C)CCN(C)C [Example 94, isopropyl 2-((5-acrylamido-4-((2-(dimethylamino)ethyl)(methyl)amino)-2-methoxyphenyl)amino)-4-(imidazo[1,2-a]pyridin-3-yl)pyrimidine-5-carboxylate] | < 100 nM | < 100 nM | < 100 nM | < 100 nM | 
13 | C=CC(=O)Nc1cc(Nc2ncc(C#N)c(-c3nn(C)c4ccccc34)n2)c(OC)cc1N(C)CCN(C)C [Example 98, N-(5-((5-cyano-4-(1-methyl-1H-indazol-3-yl)pyrimidin-2-yl)amino)-2-((2-(dimethylamino)ethyl)(methyl)amino)-4-methoxyphenyl)acrylamide] | < 100 nM | < 100 nM | < 100 nM | < 100 nM | 
14 | C=CC(=O)Nc1cc(Nc2ncc(C(=O)OC(C)C)c(-c3nn(C)c4ccccc34)n2)c(OC)cc1N(C)CCN(C)C [Example 59, isopropyl 2-((5-acrylamido-4-((2-(dimethylamino)ethyl)(methyl)amino)-2-methoxyphenyl)amino)-4-(1-methyl-1H-indazol-3-yl)pyrimidine-5-carboxylate] | < 100 nM | < 100 nM | < 100 nM | < 100 nM | 
15 | C=CC(=O)Nc1cc(Nc2ncc(Cl)c(-c3cnn4ccccc34)n2)c(OC)cc1N1CCC(N(C)C)C1 (stereo not drawn) [Example 55, N-(5-((5-chloro-4-(pyrazolo[1,5-a]pyridin-3-yl)pyrimidin-2-yl)amino)-2-(3-(dimethylamino)pyrrolidin-1-yl)-4-methoxyphenyl)acrylamide] | > 1000 nM | 100 to 500 nM | < 100 nM | > 1000 nM | 
16 | C=CC(=O)Nc1cc(Nc2ncnc(-c3c(-c4ccccc4)n(C)c4ccccc34)n2)c(OC)cc1N(C)CCN(C)C [Example 3, N-(2-((2-(dimethylamino)ethyl)(methyl)amino)-4-methoxy-5-((4-(1-methyl-2-phenyl-1H-indol-3-yl)-1,3,5-triazin-2-yl)amino)phenyl)acrylamide] | < 100 nM | < 100 nM | < 100 nM | 100 to 500 nM | 
17 | C=CC(=O)Nc1cc(Nc2ncc(C(=O)OC3CCC3)c(-c3cn(C)c4ccccc34)n2)c(OC)cc1N(C)CCN(C)C [Example 14, cyclobutyl 2-((5-acrylamido-4-((2-(dimethylamino)ethyl)(methyl)amino)-2-methoxyphenyl)amino)-4-(1-methyl-1H-indol-3-yl)pyrimidine-5-carboxylate] | < 100 nM | < 100 nM | < 100 nM | < 100 nM | 
18 | C=CC(=O)Nc1cc(Nc2ncc(C(=O)O[C@@H]3CCOC3)c(-c3cn(C)c4ccccc34)n2)c(OC)cc1N(C)CCN(C)C [Example 37, (R)-tetrahydrofuran-3-yl 2-((5-acrylamido-4-((2-(dimethylamino)ethyl)-(methyl)amino)-2-methoxyphenyl)amino)-4-(1-methyl-1H-indol-3-yl)pyrimidine-5-carboxylate] | < 100 nM | < 100 nM | < 100 nM | 100 to 500 nM | 
19 | C=CC(=O)Nc1cc(Nc2ncc(C(=O)OCC)c(-c3cn(C)c4ccccc34)n2)c(OC)cc1N(C)C[C@H]1CCCN1C [Example 65, ethyl (R)-2-((5-acrylamido-2-methoxy-4-(methyl((1-methylpyrrolidin-2-yl)methyl)amino)phenyl)amino)-4-(1-methyl-1H-indol-3-yl)pyrimidine-5-carboxylate] | < 100 nM | < 100 nM | < 100 nM | < 100 nM | 
20 | C=CC(=O)Nc1ccc(OC)c(Nc2ncc(C#N)c(-c3cn(C)c4cc(OCCC5CCCN5C)ccc34)n2)c1 (stereo not drawn) [Example 23, N-(3-((5-cyano-4-(1-methyl-6-(2-(1-methylpyrrolidin-2-yl)ethoxy)-1H-indol-3-yl)pyrimidin-2-yl)amino)-4-methoxyphenyl)acrylamide] | 100 to 500 nM | < 100 nM | < 100 nM | 500 to 1000 nM | 
21 | C=CC(=O)Nc1cc(Nc2ncc(C(=O)OC)c(-c3cn(C)c4ccccc34)n2)c(OC)cc1CCCN(C)C [Example 69, methyl 2-((5-acrylamido-4-(3-(dimethylamino)propyl)-2-methoxyphenyl)amino)-4-(1-methyl-1H-indol-3-yl)pyrimidine-5-carboxylate] | 100 to 500 nM | < 100 nM | < 100 nM | 500 to 1000 nM | 
